{"source": "ChEMBL document CHEMBL3779857", "about": "“Aspidofractinine and Eburnane Alkaloids from a North Borneo Kopsia. Ring-Contracted, Additional Ring-Fused, and Paucidactine-Type Aspidofractinine Alkaloids from K. pauciflora” (J Nat Prod, 2016)", "format_in_all_cases": "functional, cell-based", "key": {"[1]": {"test_system": "KB", "assay": "Cytotoxicity against human vincristine-sensitive KB cells assessed as cell viability after 72 hrs by MTT assay"}, "[2]": {"assay": "Cytotoxicity against human KB/VJ300 cells assessed as cell viability after 72 hrs by MTT assay", "conditions": "KB/VJ300, 72 h"}, "[3]": {"assay": "Cytotoxicity against human HCT116 cells assessed as cell viability after 72 hrs by MTT assay", "conditions": "HCT-116, 72 h"}, "[4]": {"test_system": "A549", "assay": "Cytotoxicity against human A549 cells assessed as cell viability after 72 hrs by MTT assay", "conditions": "A549, 72 h"}, "[5]": {"assay": "Cytotoxicity against human KB/VJ300 cells assessed as cell viability after 72 hrs by MTT assay in presence of 0.121 uM vincristine", "conditions": "KB/VJ300, 72 h"}, "[6]": {"test_system": "MCF7", "assay": "Cytotoxicity against human MCF7 cells assessed as cell viability after 72 hrs by MTT assay", "conditions": "MCF7, 72 h"}, "[7]": {"assay": "Cytotoxicity against human PC3 cells assessed as cell viability after 72 hrs by MTT assay", "conditions": "PC-3, 72 h"}}, "data": [{"smiles": "C[C@H]1O[C@@H]2C[C@]13CCCN1CC[C@]4(C(=O)c5ccccc5N24)[C@H]13", "values": [{"measurement": "IC50", "setting": "[1]", "value": "> 25", "unit": "µg/mL"}, {"measurement": "IC50", "setting": "[2]", "value": "> 25", "unit": "µg/mL"}]}, {"smiles": "CC[C@@]12CCCN3CCc4c(n(c5ccccc45)[C@H](c4ccc5c(c4)N[C@@]46CC[C@]7(CCCN8CC[C@]54[C@@H]87)C[C@H]6C(=O)OC)C1)[C@H]32", "values": [{"measurement": "IC50", "setting": "[3]", "value": 12.3, "unit": "µM"}, {"measurement": "IC50", "setting": "[1]", "value": 24.2, "unit": "µM"}, {"measurement": "IC50", "setting": "[4]", "value": 33.1, "unit": "µM"}, {"measurement": "IC50", "setting": "[5]", "value": 7.8, "unit": "µM"}, {"measurement": "IC50", "setting": "[6]", "value": 15.7, "unit": "µM"}, {"measurement": "IC50", "setting": "[2]", "value": 37.3, "unit": "µM"}, {"measurement": "IC50", "setting": "[7]", "value": 11.5, "unit": "µM"}]}, {"smiles": "COC(=O)[C@@H]1C[C@]23CC[C@@]14Nc1ccccc1[C@@]41CCN(C4=CC(=O)C[C@H]4C2)[C@@H]31", "values": [{"measurement": "IC50", "setting": "[1]", "value": "> 25", "unit": "µg/mL"}, {"measurement": "IC50", "setting": "[2]", "value": "> 25", "unit": "µg/mL"}]}, {"smiles": "C[C@@H](O)[C@]12C=Cn3c4c(c5ccccc53)CCN(CCC1)[C@@H]42", "values": [{"measurement": "IC50", "setting": "[1]", "value": "> 25", "unit": "µg/mL"}, {"measurement": "IC50", "setting": "[2]", "value": "> 25", "unit": "µg/mL"}]}, {"smiles": "COC(=O)[C@@H]1C[C@@]23CCCN4CC[C@@]5(c6ccc([C@@H]7C[C@@]8([C@@H](C)O)CCCN9CCc%10c(n7c7ccccc%107)[C@H]98)cc6N[C@]15CC2)[C@@H]43", "values": [{"measurement": "IC50", "setting": "[3]", "value": 25.1, "unit": "µM"}, {"measurement": "IC50", "setting": "[1]", "value": 28.8, "unit": "µM"}, {"measurement": "IC50", "setting": "[4]", "value": "> 25", "unit": "µg/mL"}, {"measurement": "IC50", "setting": "[5]", "value": 13.6, "unit": "µM"}, {"measurement": "IC50", "setting": "[6]", "value": 22.3, "unit": "µM"}, {"measurement": "IC50", "setting": "[2]", "value": "> 25", "unit": "µg/mL"}, {"measurement": "IC50", "setting": "[7]", "value": 15.3, "unit": "µM"}]}, {"smiles": "CC(=O)[C@@]12CCCN3CCc4c(n(c5ccccc45)[C@@H](O)C1)[C@H]32", "values": [{"measurement": "IC50", "setting": "[1]", "value": "> 25", "unit": "µg/mL"}, {"measurement": "IC50", "setting": "[2]", "value": "> 25", "unit": "µg/mL"}]}, {"smiles": "CC[C@@]12CCCN3CCc4c(n(c5ccccc45)[C@H](c4ccc5c(c4)N[C@@]46CC[C@]7(CCCN8CC[C@]54[C@@H]87)C[C@H]6C(=O)O)C1)[C@H]32", "values": [{"measurement": "IC50", "setting": "[3]", "value": "> 25", "unit": "µg/mL"}, {"measurement": "IC50", "setting": "[1]", "value": "> 25", "unit": "µg/mL"}, {"measurement": "IC50", "setting": "[4]", "value": "> 25", "unit": "µg/mL"}, {"measurement": "IC50", "setting": "[5]", "value": "> 25", "unit": "µg/mL"}, {"measurement": "IC50", "setting": "[6]", "value": "> 25", "unit": "µg/mL"}, {"measurement": "IC50", "setting": "[2]", "value": "> 25", "unit": "µg/mL"}, {"measurement": "IC50", "setting": "[7]", "value": "> 25", "unit": "µg/mL"}]}, {"smiles": "COC(=O)[C@@H]1C[C@]23CC[C@@]14Nc1ccccc1[C@@]41CCN(C=C(C=O)C2)[C@@H]31", "values": [{"measurement": "IC50", "setting": "[1]", "value": "> 25", "unit": "µg/mL"}, {"measurement": "IC50", "setting": "[2]", "value": "> 25", "unit": "µg/mL"}]}, {"smiles": "COC(=O)N1c2c(OC)cccc2[C@]23C4C(=O)[C@H]5C[C@@]6(CCCN(C4=O)[C@@H]62)CC[C@]513", "note": "(stereo partly specified)", "values": [{"measurement": "IC50", "setting": "[1]", "value": "> 25", "unit": "µg/mL"}, {"measurement": "IC50", "setting": "[2]", "value": "> 25", "unit": "µg/mL"}]}, {"smiles": "COC(=O)[C@@H]1C[C@]23CC[C@@]14Nc1ccccc1[C@@]41CCN(C(=O)C2)[C@@H]31", "values": [{"measurement": "IC50", "setting": "[1]", "value": "> 25", "unit": "µg/mL"}, {"measurement": "IC50", "setting": "[2]", "value": "> 25", "unit": "µg/mL"}]}, {"smiles": "O=C1OC2C(=O)N3CCC[C@]45CC[C@@]6(Nc7ccccc7[C@@]26[C@@H]34)[C@@H]1C5", "note": "(stereo partly specified)", "values": [{"measurement": "IC50", "setting": "[1]", "value": "> 25", "unit": "µg/mL"}, {"measurement": "IC50", "setting": "[2]", "value": "> 25", "unit": "µg/mL"}]}, {"smiles": "COC(=O)N1c2c(ccc3c2OCO3)[C@@]23C4CN5CCC[C@]6(CC[C@]12[C@](O)(C6)OC4=O)[C@H]53", "note": "(stereo partly specified)", "values": [{"measurement": "IC50", "setting": "[1]", "value": "> 25", "unit": "µg/mL"}, {"measurement": "IC50", "setting": "[2]", "value": "> 25", "unit": "µg/mL"}]}, {"smiles": "O=C1OC2CN3CCC[C@]45CC[C@@]6(Nc7ccccc7[C@@]26[C@@H]34)[C@@H]1C5", "note": "(stereo partly specified)", "values": [{"measurement": "IC50", "setting": "[1]", "value": "> 25", "unit": "µg/mL"}, {"measurement": "IC50", "setting": "[2]", "value": "> 25", "unit": "µg/mL"}]}, {"smiles": "CCO[C@H]1C[C@@]2([C@@H](C)O)CCCN3CCc4c(n1c1ccccc41)[C@H]32", "values": [{"measurement": "IC50", "setting": "[1]", "value": "> 25", "unit": "µg/mL"}, {"measurement": "IC50", "setting": "[2]", "value": "> 25", "unit": "µg/mL"}]}, {"smiles": "COc1ccc(CCN(C)CCCC(C#N)(c2ccc(OC)c(OC)c2)C(C)C)cc1OC", "note": "(stereo unspecified)", "values": [{"measurement": "IC50", "setting": "[1]", "value": "> 25", "unit": "µg/mL"}]}, {"smiles": "CC[C@]1(O)C[C@H]2CN(CCc3c([nH]c4ccccc34)[C@@](C(=O)OC)(c3cc4c(cc3OC)N(C=O)[C@H]3[C@@](O)(C(=O)OC)[C@H](OC(C)=O)[C@]5(CC)C=CCN6CC[C@]43[C@@H]65)C2)C1", "note": "[VINCRISTINE]", "values": [{"measurement": "IC50", "setting": "[1]", "value": 0.0033, "unit": "µM"}, {"measurement": "IC50", "setting": "[2]", "value": 7.5, "unit": "µM"}]}]}
